# In patent US5708000A, “N4-substituted cytosinyl 1,3-oxathiolane nucleoside analogues, and their antiviral activity” (Laboratoire Laphal, priority 1994, dated 1998):
# Where two headings read alike, the source gives them in different places.
# Key:
# [1] = test system: duck hepatitis B virus (DHBV); test: Anti-HBV test: effect on the replication of the duck hepatitis B virus (DHBV) in infected duck hepatocytes (viral DNA); assay type: cell-based; details: Hepatocyte, 240 h, read-out: IC50, inhibition of the replication of DHBV virus
# Description: Among the several methodologies used for evaluating the activity of compounds on Hepatitis B virus (HBV), the pattern of Hepatitis B virus of the duck (Duck HBV) has been utilized (J. Med. Virology (1990) 31 82-89; Viral Hepatitis and Liver disease (1988) 506-509; Hepatology (1989) 10 186-191). The material of culture to test <<in vitro>> the anti HBV activity of the compounds is made of duck hepatocytes infected by the duck Hepatitis B virus (DHBV) (Antimicrob. Agents Chemother. (1989) 33 336-339; J. Med. Virology 40,59-64; Antivir Res. (1993) 21, 155-171; Antimicrob. Agents Chemother. (1993) 37 1539-1542). Indeed the Hepatitis B virus of the duck is recognized as being very close to the human hepatitis B virus (Viral Hepatitis and Liver Disease (1988) 526-529. Antiviral Research (1987) 8189-199). Under standardized conditions (Virology (1989) 171 564-572) the cultures of duck hepatocytes allow the complete replication of DHBV. The antiviral activity of the tested compounds has been measured as a function of the amount of viral DNA produced during 10 days of culture of the infected hepatocytes.
# A young male duck 3 weeks old, affected by DHBV, is used for the production of hepatocytes. The duck is killed under anesthesia and the isolation of hepatocytes is carried out using the methodology of Guillouzou (Research in isolated and cultured hepatocytes, J. Libbey Eurotex Ltd / INSERM, 1986). The cells are cultured in the Leibowitz's medium and 5 μg/ml bovine insuline, 7×10^-5 mole cortisone hemisuccinate and 1,5% dimethylsulfoxide (DMSO) are added thereto. The density of the cells is 8×10^6 cells, they are sprayed in culture boxes of 100×20 mm. The tested compounds are added to the culture after the spread out of the cells. The medium is renewed every day, during 10 days. The production of viral DNA of the duck hepatitis B virus in the cells surpernatant is determined by means of hybridation method "Dot blot" according to Fourel and al. (Viral Hepatitis and Liver Disease, 1988, 506-509; Hepatology, 1989, 10, 186-191). Inhibition is expressed as a percentage of the DNA amount present on the supernatant of cells with regard to a culture infected by DHBV untreated with a nucleosidic derivative.
# The most representative described compounds have been tested for their effect on the replication of the duck virus HBV (DHBV) along the protocol exposed in the experimental part of this document.
# [2] = test system: HIV-1 virus (BRU) in MT4 cells; test: Anti-HIV test: inhibition of HIV-1 replication (syncitia formation) in infected MT4 cells; assay type: cell-based
# Description: The evaluation of the antiviral action is based on the study of cytopathogenic effect of HIV-1 Virus on the cell line MT4. The cell line MT4 has as an origin T cells isolated from a patient, transformed by the […]. The cytopathogenic effect of HIV-1 virus is shown by the formation of multinucleated giant cells called <> visible under the microscope. This effect of HIV-1 is observed 4 to 5 days after infection. It is followed with the death of cells.
# The cytopathogenic effect is directly correlated to the infection of the cells by the virus, to its intracellular replication and to the expression of viral antigens by the cells. An inhibition of this effect thus corresponds to an inhibition of the multiplication of HIV-1 virus.
# The MT4 cells are maintained at 3.10^5 cells/ml in a RPMI 1640 medium : 10% of decomplemented fetal calf serum for 30 mn at 56° C. (hormons, serum growth factors . . . ), 1% glutamine, 1% penicillin streptomycin and 2 μg/ml Polyren which promotes the viral adhesion to the cells.
# The action of the treatment by the anti-viral agent is continuous. In fact this effect is present before during and after the viral infection. Successive dilutions are performed in the 10% fetal calf serum to be able to cultivate the MT4 cells for 8 days and to observe the formation of syncithias.
# Before infection : 3×10^6 cells/100 μl are distributed in a microtiter plate with 96 wells and centrifugated for 3 min. at 2000 rpm (rounds per minute). The pellet is then pre-incubated for 1 hour at 37° C., with 100 μl of various concentrations of the anti-viral agent to be tested.
# Infection : The infection is achieved in microwells while adding 100 TCIU (infection units) of HIV-1 virus (this titer of HIV-1 virus is determined as to induce the formation of syncithias in 4 or 5 days). The anti-viral agent is always present at the time of infection and dilution of the virus at 100 TCIU.
# After infection : After incubation for 1 hour at 37° C., the MT4 cells are washed three times with RPMI 1640 medium and cultured on account of 3.10^5 cells per milliliter of each of the concentration of the compounds to be tested on plates of 24 wells. When passing at day D3 the MT4 cells are diluted to 1/3. The concentration of the anti-viral agent is maintained. Each day occurrence of syncithia is observed under the microscope to detect any optional delay with respect to the controls HIV-1. At day D8 the determination of reverse transcriptase is carried out. When the cells are not infected thus it is a protection by the tested anti-viral agent.
# The compounds the synthesis of which has been described in this patent application and the related structures given in the previous prior art, have an affect on the inhibition of the replication of BRU HIV-1 virus (BRU beeing the vital strain experienced) in the case where the infected cells are of the type MT4.
# In the table I they have been described the results of the tests. Column 1 provides the names of the most representative studied compounds and in column 2 they are reported the so-called IC50 values (concentration of the component giving a 50% inhibition of the replication of HIV in the infected MT4 cells, measured at day D7 after infection). In observing and counting the number of formed syncitia in relation with that counted in the case of infected MT4 cells but untreated with antiviral compound, the value IC50 is determined.
# [3] = duck hepatocytes infected by DHBV, viral DNA in supernatant, dot blot, 10 days of culture
# [4] = Human immunodeficiency virus 1, BRU HIV-1, MT4 cells, syncitia count, day D7 after infection, read-out: IC50 (concentration giving a 50% inhibition of the replication of HIV in the infected MT4 cells)
SMILES,"IC50 [1, 3] [nM]","IC50 [2, 4] [nM]",IC50 [1] [nM],"IC50 ([2]; Human immunodeficiency virus 1, MT4, read-out: IC50 (concentration giving a 50% inhibition of the replication of HIV in the infected MT4 cells)) [nM]"
"O=C(Nc1ccn([C@@H]2CS[C@H](CO)O2)c(=O)n1)c1cccnc1 (relative stereo) [Compound 2, Cis 2-(hydroxymethyl)-5 [N^4-(3""-pyridinylcarbonyl)cytosin-1'-yl]-1,3-oxathiolan]",2000 ± 500,100 to 1000,–,–
O=C(Nc1ccn([C@@H]2CS[C@H](CO)O2)c(=O)n1)c1cnc2ccccc2c1 (relative stereo) [Compound 8],2000,10000,–,–
"C[n+]1cc(C(=O)Nc2ccn([C@@H]3CS[C@H](CO)O3)c(=O)n2)cc2ccccc21 (relative stereo) [Compound 9, cis 2-hydroxymethyl 5-[N^4-(1""-methyl 3""-quinolinyicarbonyl)cytosin-1'yl]-1,3-oxathiolane]",–,–,2000,> 100000
"CN1C=C(C(=O)Nc2ccn([C@@H]3CS[C@H](CO)O3)c(=O)n2)Cc2ccccc21 (relative stereo) [Compound 10, cis 2-hydroxymethyl 5-[N^4-(1""-methyl 1"", 4""-dihydro 3""-quinolinylcarbonyl)cytosin-1'yl]-1,3-oxathiolane]",2000,1000 to 10000,–,–
"O=C(Nc1ccn([C@@H]2CS[C@H](CO)O2)c(=O)n1)c1cccnc1Nc1cccc(C(F)(F)F)c1 (relative stereo) [Compound 11, cis 2-hydroxymethyl-5-[N^4-(2-(a,a,a-trifluoro-m-toluidino)nicotinyl)-cytosin-1'yl]-1,3-oxathiolane]",–,< 100000,–,–
"Nc1ccn([C@H]2CS[C@@H](CO)O2)c(=O)n1 [BCH-189, 2',3'-dideoxy 3'-thiacytidine, reference compound]",1000 ± 500,1000,–,–
